Results from patent publication US12180207B2 (ARRAY BIOPHARMA INC., priority 2018, dated 2024).

Columns and labels:
[1] = biological target: FGFR3 (SEQ ID NO: 5, amino acids 449-759) (Homo sapiens (Human), UniProt P22607); assay: LC/MS FGFR3 kobs assay (covalent protein modification); format: binding; details: 500 nM FGFR3, 3 μM compound
Protocol: (§1) The LC/MS FGFR1 and FGFR3 kobs assays were conducted as follows. […] At each time point, the reaction was quenched with 20 μL of 0.4% formic acid. The extent of protein modification by each compound was determined by LC/MS on an Agilent Technologies 6520 Q-TOF LC/MS. Protein signals were then automatically deconvoluted using Agilent Masshunter software. Deconvoluted mass signals were exported to Tibco Spotfire data analysis program for further processing and normalization.
(§2) Data analysis included five steps. First, the signals for the “DMSO Controls” were analyzed to determine the percent of signal associated with unmodified FGFR1 or FGFR3 at each time point. Next, the percent of the signal associated with the covalent modification was determined. Third, the average nonmodified “DMSO Control” signal was used to normalize the modified protein signals at each time point. The percent of unmodified protein was fit to an exponential decay model where A0 is the Percent Unmodified at the start of the reaction, and kobs is the observed rate constant over the time period.
Table EC contains kobs values for compounds tested in these assays, presented as the average of multiple determinations if multiple determinations were made. ND=not determined.

[2] = biological target: phosphorylated FGFR3 (SEQ ID NO: 5, amino acids 449 to 759) (Homo sapiens (Human), UniProt P22607); assay: FGFR enzyme binding assay (HTRF tracer displacement), FGFR3; details: 5 nM phosphorylated FGFR3, average of multiple determinations if made
Protocol: (§3) The potency of compounds inhibiting human isoforms of FGFR kinase was determined using Life Technologies' Homogeneous Time Resolved Fluorescence (HTRF)-based binding assay technology. […] After a 60 minute incubation at 22° C., the extent of tracer displacement was determined using a PerkinElmer EnVision multimode plate reader via HTRF dual wavelength detection, and the percent of control (POC) was calculated using a ratiometric emission factor. One hundred POC was determined using no test compound, and 0 POC was determined in the presence of 1 μM of an appropriate control inhibitor.

[3] = biological target: recombinant human FGFR2 cytoplasmic domain (amino acids 403-822) (Homo sapiens (Human), UniProt P21802); assay: FGFR2 enzyme activity assay (LanthaScreen TR-FRET); format: biochemical; details: 15 μM ATP, 20 min incubation at 22° C., average of multiple determinations if made, read-out: FGFR2 Enz FRET IC50
Protocol: FGFR2 kinase activity was measured by the Invitrogen LanthaScreen™ Assay technology which directly measures the amount of substrate phosphorylation by TR-FRET using a fluorescently-labeled peptide and Europium-labeled antibody. Briefly, […] His-tagged recombinant human FGFR2 cytoplasmic domain (amino acids 403-822) (Life Technologies Cat. No. PR5332A) was incubated with 100 nM Alexa Fluor® 647-Poly-GT Peptide Substrate (Life Technologies Cat. No. PV5836) and 15 μM ATP along with test compound in a buffer consisting of 250 mM HEPES, 25 mM MgCl2, 0.05% TritonX-100, pH 7.5, and 2% DMSO. […] After a 20 minute incubation at 22° C., an equal volume of 2 nM LanthaScreen® Eu-PY20 Antibody (Life Technologies Cat. No. PV5691) and 10 mM EDTA were added to quench the kinase reaction and start the detection reaction. After an additional 60 minute incubation at 22° C., the reaction was measured using a PerkinElmer EnVision multimode plate reader via TR-FRET dual wavelength detection, and the percent of control (POC) calculated using a ratiometric emission factor. 100 POC was determined using no test compounds and 0 POC was determined using no enzyme. The POC values were fit to a 4-parameter logistic curve as a function of the concentration of the compound, and the IC50 value is the point where the curve crosses 50 POC.

[4] = biological target: recombinant human FGFR1 catalytic domain (amino acids 308-731) (Homo sapiens (Human), UniProt P11362); assay: FGFR1 enzyme activity assay (LanthaScreen TR-FRET); format: biochemical; details: 20 min incubation at 22° C., average of multiple determinations if made, read-out: FGFR1 Enz FRET IC50
Protocol: FGFR1 kinase activity was measured by the Invitrogen LanthaScreen™ Assay technology which directly measures the amount of substrate phosphorylation by Time-resolved fluorescence energy transfer (TR-FRET) using a fluorescently-labeled peptide and Europium-labeled antibody. Briefly, […] His-tagged recombinant human FGFR1 catalytic domain (amino acids 308-731) (Life Technologies Cat. No. PR4660A) was incubated with 100 nM Alexa Fluor® 647-Poly-GT Peptide Substrate (Life Technologies Cat. No. PV5836) and […] ATP along with test compound in a buffer consisting of 250 mM HEPES, 25 mM MgCl2, 0.05% TritonX-100, pH 7.5, and 2% DMSO. […] After a 20 minutes incubation at 22° C., an equal volume of 2 nM LanthaScreen® Eu-PY20 Antibody (Life Technologies Cat. No. PV5691) and 10 mM EDTA was added to quench the kinase reaction and start the detection reaction. After an additional 60 minute incubation at 22° C., the reaction was measured using a PerkinElmer EnVision multimode plate reader via TR-FRET dual wavelength detection, and the percent of control (POC) calculated using a ratiometric emission factor. 100 POC was determined using no test compounds and 0 POC was determined using no enzyme. The POC values were fit to a 4-parameter logistic curve as a function of the concentration of the compound, and the IC50 value is the point where the curve crosses 50 POC.

[5] = biological target: FGFR1 (SEQ ID NO: 1, amino acids 458-765) (Homo sapiens (Human), UniProt P11362); assay: LC/MS FGFR1 kobs assay (covalent protein modification); format: binding; details: 500 nM FGFR1, 3 μM compound
Protocol: as §1, §2

[6] = biological target: dephosphorylated FGFR1 (SEQ ID NO: 1, amino acids 458 to 765) (Homo sapiens (Human), UniProt P11362); assay: FGFR enzyme binding assay (HTRF tracer displacement), FGFR1; details: 5 nM dephosphorylated FGFR1, average of multiple determinations if made
Protocol: as §3

[7] = biological target: recombinant human FGFR3 (amino acids R397-T806) (Homo sapiens (Human), UniProt P22607); assay: FGFR3 enzyme activity assay (LanthaScreen TR-FRET); format: biochemical; details: 25 μM ATP, 10 min incubation at 22° C., average of multiple determinations if made, read-out: FGFR3 Enz FRET IC50
Protocol: FGFR3 kinase activity was measured by the Invitrogen LanthaScreen™ Assay technology which directly measures the amount of substrate phosphorylation by TR-FRET using a fluorescently-labeled peptide and Europium-labeled antibody. Briefly, […] N-terminal GST-HIS6 fusion protein with a 3C cleavage site recombinant human FGFR3 (amino acids R397-T806) (ProQinase Cat. No. 1068-0000-1) was incubated with 100 nM Alexa Fluor® 647-Poly-GT Peptide Substrate (Life Technologies Cat. No. PV5836) and 25 μM ATP along with test compound in a buffer consisting of 250 mM HEPES, 25 mM MgCl2, 0.05% TritonX-100, pH 7.5, and 2% DMSO. […] After a 10 minute incubation at 22° C., an equal volume of 2 nM LanthaScreen® Eu-PY20 Antibody (Life Technologies Cat. No. PV5691) and 10 mM EDTA were added to quench the kinase reaction and start the detection reaction. After an additional 60 minute incubation at 22° C., the reaction was measured using a PerkinElmer EnVision multimode plate reader via TR-FRET dual wavelength detection, and the percent of control (POC) calculated using a ratiometric emission factor. 100 POC was determined using no test compounds and 0 POC was determined using no enzyme. The POC values were fit to a 4-parameter logistic curve as a function of the concentration of the compound, and the IC50 value is the point where the curve crosses 50 POC.

recombinant human FGFR3 (amino acids R397-T806), sequence (P22607 397-806): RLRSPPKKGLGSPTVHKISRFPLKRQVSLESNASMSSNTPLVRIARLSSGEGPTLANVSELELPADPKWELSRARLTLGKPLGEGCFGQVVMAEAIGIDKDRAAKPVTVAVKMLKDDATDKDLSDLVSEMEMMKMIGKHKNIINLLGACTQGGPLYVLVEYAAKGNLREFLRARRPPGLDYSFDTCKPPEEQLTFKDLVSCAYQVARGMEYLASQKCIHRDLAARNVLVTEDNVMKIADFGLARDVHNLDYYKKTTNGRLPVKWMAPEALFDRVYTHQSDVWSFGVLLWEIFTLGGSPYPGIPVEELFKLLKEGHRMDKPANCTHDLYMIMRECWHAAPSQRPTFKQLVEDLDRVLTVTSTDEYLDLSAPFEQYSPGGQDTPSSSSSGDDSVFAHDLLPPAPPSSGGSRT
FGFR3 (SEQ ID NO: 5, amino acids 449-759), sequence (P22607 449-759): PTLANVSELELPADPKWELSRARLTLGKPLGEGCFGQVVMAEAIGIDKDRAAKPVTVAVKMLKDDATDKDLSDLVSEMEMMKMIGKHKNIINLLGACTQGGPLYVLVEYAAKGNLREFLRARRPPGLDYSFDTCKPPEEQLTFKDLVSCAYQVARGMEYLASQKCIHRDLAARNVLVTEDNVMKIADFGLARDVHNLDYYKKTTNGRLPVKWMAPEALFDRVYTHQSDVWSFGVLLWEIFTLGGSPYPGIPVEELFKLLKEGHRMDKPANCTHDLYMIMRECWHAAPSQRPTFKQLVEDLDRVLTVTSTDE
phosphorylated FGFR3 (SEQ ID NO: 5, amino acids 449 to 759), sequence (P22607 449-759): as above
recombinant human FGFR2 cytoplasmic domain (amino acids 403-822), sequence (P21802 402-821): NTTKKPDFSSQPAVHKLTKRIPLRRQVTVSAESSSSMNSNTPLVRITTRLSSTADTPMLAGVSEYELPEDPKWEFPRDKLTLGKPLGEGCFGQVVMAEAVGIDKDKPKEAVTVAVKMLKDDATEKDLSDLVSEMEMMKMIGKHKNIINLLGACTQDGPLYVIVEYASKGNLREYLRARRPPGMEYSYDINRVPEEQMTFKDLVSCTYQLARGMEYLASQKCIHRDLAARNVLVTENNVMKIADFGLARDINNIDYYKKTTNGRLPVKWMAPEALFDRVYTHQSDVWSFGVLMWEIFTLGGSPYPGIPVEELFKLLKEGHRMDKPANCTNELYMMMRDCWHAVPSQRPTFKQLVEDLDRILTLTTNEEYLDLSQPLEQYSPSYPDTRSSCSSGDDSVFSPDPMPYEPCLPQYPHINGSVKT
dephosphorylated FGFR1 (SEQ ID NO: 1, amino acids 458 to 765), sequence (P11362 458-765): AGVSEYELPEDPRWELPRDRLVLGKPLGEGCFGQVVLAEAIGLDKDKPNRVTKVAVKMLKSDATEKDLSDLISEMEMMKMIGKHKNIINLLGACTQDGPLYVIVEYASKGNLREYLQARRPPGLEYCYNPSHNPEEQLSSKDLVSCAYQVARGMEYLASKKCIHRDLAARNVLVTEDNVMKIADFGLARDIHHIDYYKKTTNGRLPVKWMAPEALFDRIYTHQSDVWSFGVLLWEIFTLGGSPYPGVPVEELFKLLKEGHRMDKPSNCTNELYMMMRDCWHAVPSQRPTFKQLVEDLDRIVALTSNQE
FGFR1 (SEQ ID NO: 1, amino acids 458-765), sequence (P11362 458-765): as above
recombinant human FGFR1 catalytic domain (amino acids 308-731), sequence (P11362 other isoform, or with tags, fused parts or gaps): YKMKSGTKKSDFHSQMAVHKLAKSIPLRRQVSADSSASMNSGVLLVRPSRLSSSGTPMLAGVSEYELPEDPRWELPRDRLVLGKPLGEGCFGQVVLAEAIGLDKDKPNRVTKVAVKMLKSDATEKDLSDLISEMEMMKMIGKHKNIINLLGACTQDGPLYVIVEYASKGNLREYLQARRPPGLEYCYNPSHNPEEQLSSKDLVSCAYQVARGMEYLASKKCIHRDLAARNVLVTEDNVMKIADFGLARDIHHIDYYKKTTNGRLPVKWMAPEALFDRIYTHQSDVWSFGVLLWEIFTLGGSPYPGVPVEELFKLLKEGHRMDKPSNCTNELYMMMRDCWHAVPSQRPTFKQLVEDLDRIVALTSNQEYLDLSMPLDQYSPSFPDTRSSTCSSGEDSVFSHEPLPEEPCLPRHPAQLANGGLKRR

Compound	FGFR3 Enz kobs [1] [min⁻¹]	IC50 [2] [nM]	IC50 [3] [nM]	IC50 [4] [nM]	FGFR1 Enz kobs [5] [min⁻¹]	IC50 [6] [nM]	IC50 [7] [nM]
C=CC(=O)N1CCC[C@@H](C(=O)N2CCC(n3cc(-c4cc(OC)c5c(C#N)cnn5c4)cn3)CC2)C1 [Example 17, (R)-6-(1-(1-(1-acryloylpiperidine-3-carbonyl)piperidin-4-yl)-1H-pyrazol-4-yl)-4-methoxypyrazolo[1,5-a]pyridine-3-carbonitrile]	0.00163	8	7	17	0.00041	45	6
C=CC(=O)N1CC[C@@H](C(=O)N2CC[C@H](n3cc(-c4cc(OC)c5c(C#N)cnn5c4)cn3)C2)C1 [Example 72, 6-(1-((S)-1-((R)-1-acryloylpyrrolidine-3-carbonyl)pyrrolidin-3-yl)-1H-pyrazol-4-yl)-4-methoxypyrazolo[1,5-a]pyridine-3-carbonitrile]	0.00117	7	5	25	0.00049	36	3
C=CC(=O)Nc1cccc(C(=O)N2CC[C@H](n3cc(-c4cc(OC)c5c(C#N)cnn5c4)cn3)C2)c1 [Example 67, (S)-N-(3-(3-(4-(3-cyano-4-methoxypyrazolo[1,5-a]pyridin-6-yl)-1H-pyrazol-1-yl)pyrrolidine-1-carbonyl)phenyl)acrylamide]	0.00341	12	3	8	0.00146	47	5
C=CC(=O)N1CC2CC(C1)N2C(=O)N1CCC(n2cc(-c3cc(OC)c4c(C#N)cnn4c3)cn2)CC1 [Example 4, 6-(1-(1-(3-acryloyl-3,6-diazabicyclo[3.1.1]heptane-6-carbonyl)piperidin-4-yl)-1H-pyrazol-4-yl)-4-methoxypyrazolo[1,5-a]pyridine-3-carbonitrile]	0.00283	6	4	11	0.00052	42	3

More lines, in order of falling IC50 [2], values ahead:

FGFR3 Enz kobs [1] [min⁻¹]	IC50 [2] [nM]	IC50 [3] [nM]	IC50 [4] [nM]	FGFR1 Enz kobs [5] [min⁻¹]	IC50 [6] [nM]	IC50 [7] [nM]	Compound
0.00039	192	18	68	0.00004	1120	17	C=CC(=O)NC1CCC(NC(=O)c2ccc(-c3cc(OC)c4c(C#N)cnn4c3)cc2)CC1 (centres unmarked) [Example 167, N-(4-acrylamido-cyclohexyl)-4-(3-cyano-4-methoxypyrazolo [1,5-a]pyridin-6-yl)benzamide]
0.00158	41	8	55	0.00058	290	8	C=CC(=O)N1CC[C@@H](C(=O)N2CC[C@@H](n3cc(-c4cc(OC)c5c(C#N)cnn5c4)cn3)C2)C1 [Example 58, 6-(1-((R)-1-((R)-1-acryloylpyrrolidine-3-carbonyl)pyrrolidin-3-yl)-1H-pyrazol-4-yl)-4-methoxypyrazolo[1,5-a]pyridine-3-carbonitrile]
0.00626	8	5	16	0.00068	58	6	C=CC(=O)N1CC[C@@H](C(=O)N2CCN(c3ccc(-c4cc(OC)c5c(C#N)cnn5c4)cn3)CC2)C1 [Example 110, (R)-6-(6-(4-(1-acryloylpyrrolidine-3-carbonyl)piperazin-1-yl)pyridin-3-yl)-4-methoxypyrazolo[1,5-a]pyridine-3-carbonitrile]
0.00353	5	5	13	0.00044	47	3	C=CC(=O)N1CCN(c2ccc(-c3cc(OC)c4c(C#N)cnn4c3)cc2)CC1 [Example 99, 6-(4-(4-acryloylpiperazin-1-yl)phenyl)-4-methoxypyrazolo[1,5-a]pyridine-3-carbonitrile]
